{"source": "patent US9783518B2", "about": "“Therapeutic agent and treatment method for ameliorating uremia” (Toray Industries, Inc., priority 2005, dated 2017)", "key": {"HUS [1]": {"test_system": "HUS", "settings": "in vivo; cited from earlier work"}, "[2]": {"test_system": "streptozotocin-induced diabetic nephropathy rats", "settings": "cited from earlier work"}, "[3]": {"test_system": "renal function impairment induced by uninephrectomy, high sodium loading and protein loading", "settings": "cited from earlier work"}, "[4]": {"test_system": "Thy-1-induced nephritis models", "settings": "prophylactic administration before induction of nephritis; cited from earlier work"}, "HUS [5]": {"test_system": "HUS", "settings": "one case of HUS; cited from earlier work"}, "[6]": {"test_system": "cats with chronic renal failure", "assay": "Blood biochemical analysis and urinalysis (BUN, serum Cre, glucose) in cats with chronic renal failure", "type": "in vivo, cat", "settings": "Case-F, male cat 11 y, diabetic nephropathy; protamine zinc insulin 2 units/BID, 2 months", "description": "Testing methods for the patients showing uremia caused by chronic renal failure, employed in Example 4 or later, will now be described. The criteria and evaluation items for the cats and dogs with chronic renal failure are as follows: Diagnosis of uremia and chronic renal failure were performed totally taking clinical findings (including findings of uremia) and the results of the blood test, blood biochemical analysis and urinalysis into consideration. As the clinical findings of uremia, existence and degree of polydipsia and diuresis, dehydration, anorexia, weight loss, vomiting symptom and state of dehydration were observed. Existence of chronic renal failure was judged based on the serum Cre value as generally employed. As reference data for grasping the degree of progress of chronic renal failure, BUN value was also monitored.\nIn the blood test, RBC, WBC, PCV, Hg and PLT were measured. In the blood biochemical analysis, TP, Tcho, AST, ALT, ALP, Tbil, BUN, creatinine, calcium, inorganic phosphorus, glucose, sodium ion, potassium ion and chloride ion were measured. In the urinalysis, protein amount, pH, occult blood, bilirubin and glucose were measured. To eliminate the circadian rhythm and influence by meals on the values of blood biochemical markers, every blood collection was carried out in the morning before feeding (at fasting).\nAs a more specific criterion for chronic renal failure in cats and dogs in the present Examples, a serum Cre value of 1.4 mg/dL in the blood test was employed. Serum Cre value was measured by creatinine deaminase-amidohydrolase method, and the BUN value as reference data for grasping the degree of progress of chronic renal failure was measured by urease-GLDH method.\nAdministration of beraprost sodium was conducted by orally administering the tablet with a content of 150 μg/tablet (Example 1) twice a day (300 μg/head/day). The administration was conducted every day and continued basically for 6 months, and in cases where the owner desired, the administration was continued even after the test period. The Examples of the present invention include both cases where the dosing period was less than 6 months and more than 6 months."}}}
{"compound": "CCCCC[C@H](O)/C=C/[C@@H]1[C@H]2C/C(=C/CCCC(=O)O)O[C@H]2C[C@H]1O", "note": "[PGI2, prostaglandin I2]", "values": [{"measurement": "progress of HUS", "setting": "HUS [1]", "value": "does not have an activity to inhibit the progress of HUS"}]}
{"compound": "CCC#CC[C@H](C)[C@H](O)C#C[C@@H]1[C@H]2C/C(=C/COCC(=O)O)C[C@H]2C[C@H]1O", "note": "[cicaprost]", "values": [{"measurement": "renal function impairment", "setting": "[2]", "value": "activity to reduce the renal function impairment"}, {"measurement": "renal function impairment", "setting": "[3]", "value": "activity to reduce the renal function impairment"}]}
{"compound": "CC#CCC(C)[C@H](O)/C=C/[C@@H]1[C@H]2C/C(=C/CCCC(=O)O)C[C@H]2C[C@H]1O", "note": "(stereo partly drawn) [iloprost]", "values": [{"measurement": "urinary protein", "setting": "[4]", "value": "decreased"}, {"measurement": "improvement of the serum Cre value", "setting": "HUS [5]", "value": "effective"}]}
{"compound": "insulin: protamine zinc insulin for treating diabetes", "values": [{"measurement": "fasting blood glucose", "setting": "[6]", "value": 100, "unit": "mg/dL"}]}
